In ChEMBL document CHEMBL4196200 (J Med Chem, 2018):
Each block holds one compound with its values, some of them ahead of it.

Key:
Vasopressin V1a receptor [1] = biological target: T1, Vasopressin V1a receptor (Homo sapiens, UniProt P37288); experiment: Displacement of [3H]-AVP from human V1A receptor expressed in human HeLa cell membranes incubated for 2 hrs by scintillation counting method
Target sequence in this assay (P37288 whole entry): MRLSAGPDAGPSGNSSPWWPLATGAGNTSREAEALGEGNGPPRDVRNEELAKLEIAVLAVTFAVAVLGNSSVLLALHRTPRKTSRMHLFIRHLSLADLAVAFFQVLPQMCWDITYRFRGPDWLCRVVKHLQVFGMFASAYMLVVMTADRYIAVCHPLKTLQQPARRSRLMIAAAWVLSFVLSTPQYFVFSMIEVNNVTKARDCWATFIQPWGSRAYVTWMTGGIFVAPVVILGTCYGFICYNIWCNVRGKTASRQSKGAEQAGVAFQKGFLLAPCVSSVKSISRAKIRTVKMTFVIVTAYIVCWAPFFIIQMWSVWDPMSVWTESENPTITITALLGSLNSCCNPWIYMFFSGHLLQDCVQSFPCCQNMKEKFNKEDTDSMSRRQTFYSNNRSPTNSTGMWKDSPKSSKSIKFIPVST

Vasopressin V2 receptor [2] = biological target: T2, Vasopressin V2 receptor (Homo sapiens, UniProt P30518); experiment: Agonist activity at human V2 receptor expressed in human HeLa cells assessed as stimulation of cAMP accumulation by radioimmunoassay; format: functional, cell-based
T2 sequence (P30518 whole entry): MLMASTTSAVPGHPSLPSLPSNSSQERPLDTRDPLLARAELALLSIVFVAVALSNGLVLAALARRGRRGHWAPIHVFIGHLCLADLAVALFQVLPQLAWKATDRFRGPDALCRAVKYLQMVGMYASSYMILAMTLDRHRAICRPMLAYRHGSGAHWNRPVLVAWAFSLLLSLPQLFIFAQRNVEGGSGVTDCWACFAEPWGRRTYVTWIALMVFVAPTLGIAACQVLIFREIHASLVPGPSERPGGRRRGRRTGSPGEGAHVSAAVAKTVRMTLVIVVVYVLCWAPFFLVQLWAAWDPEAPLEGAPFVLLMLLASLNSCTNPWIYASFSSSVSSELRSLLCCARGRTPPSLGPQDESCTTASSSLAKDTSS

Vasopressin V1b receptor [3] = biological target: T3, Vasopressin V1b receptor (Homo sapiens, UniProt P47901); experiment: Displacement of [3H]-AVP from human V1B receptor expressed in human HeLa cell membranes incubated for 2 hrs by scintillation counting method
T3 sequence (P47901 whole entry): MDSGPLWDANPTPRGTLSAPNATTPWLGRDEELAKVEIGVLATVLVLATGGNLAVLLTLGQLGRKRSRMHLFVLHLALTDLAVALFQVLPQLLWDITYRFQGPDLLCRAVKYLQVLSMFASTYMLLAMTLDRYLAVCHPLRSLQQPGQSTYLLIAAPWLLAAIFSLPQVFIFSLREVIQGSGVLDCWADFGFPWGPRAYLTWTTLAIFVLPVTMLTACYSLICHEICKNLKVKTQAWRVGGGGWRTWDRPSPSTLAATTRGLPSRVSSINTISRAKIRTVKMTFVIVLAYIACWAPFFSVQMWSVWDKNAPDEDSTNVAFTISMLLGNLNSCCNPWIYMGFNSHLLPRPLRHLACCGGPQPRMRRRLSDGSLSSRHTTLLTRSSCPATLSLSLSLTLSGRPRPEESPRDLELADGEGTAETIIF

Vasopressin V2 receptor [4] = biological target: T2, Vasopressin V2 receptor; experiment: Displacement of [3H]-AVP from human V2 receptor expressed in human HeLa cell membranes incubated for 2 hrs by scintillation counting method
Vasopressin V1a receptor [5] = biological target: T1, Vasopressin V1a receptor; experiment: Displacement of DY647 from SNAP-tagged V1A receptor (unknown origin) expressed in HEK293 cells by TR-FRET assay; format: cell-based
Target sequence in this assay (P37288 whole entry): as the sequence (P37288 whole entry) above

[6] = biological target: T4, Oxytocin receptor (Homo sapiens) (UniProt P30559); experiment: Agonist activity at human OTR receptor expressed in CHO cells co-expressing NFAT-luciferase incubated for 5 hrs by luciferase reporter gene assay relative to OT; format: functional, cell-based
T4 sequence (whole entry): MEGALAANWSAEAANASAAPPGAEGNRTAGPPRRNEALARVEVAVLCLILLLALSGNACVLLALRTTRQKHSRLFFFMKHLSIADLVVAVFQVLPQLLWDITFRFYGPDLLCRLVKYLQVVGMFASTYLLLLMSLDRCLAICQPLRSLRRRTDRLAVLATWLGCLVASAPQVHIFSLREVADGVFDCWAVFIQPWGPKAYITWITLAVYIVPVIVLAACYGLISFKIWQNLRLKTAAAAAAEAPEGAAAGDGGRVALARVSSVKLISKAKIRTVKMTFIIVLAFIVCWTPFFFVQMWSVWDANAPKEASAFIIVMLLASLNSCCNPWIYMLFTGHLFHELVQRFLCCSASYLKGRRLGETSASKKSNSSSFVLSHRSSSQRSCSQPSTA

Vasopressin V1a receptor [7] = biological target: T1, Vasopressin V1a receptor; experiment: Agonist activity at human V1A receptor expressed in HEK cells assessed as increase in intracellular calcium flux at 1 uM incubated for 45 mins by Indo1-AM dye based fluorescence assay relative to AVP; format: functional, cell-based
Target sequence in this assay (P37288 whole entry, looked up): as the sequence (P37288 whole entry) above

[8] = biological target: T4, Oxytocin receptor (Homo sapiens); experiment: Agonist activity at human OTR expressed in HEK cells assessed as increase in intracellular calcium flux incubated for 45 mins by Indo1-AM dye based fluorescence assay relative to OT; format: functional, cell-based
Oxytocin receptor [9] = biological target: T5, Oxytocin receptor (Homo sapiens, UniProt P30559); experiment: Agonist activity at human OTR expressed in HEK cells assessed as increase in intracellular calcium flux incubated for 45 mins by Indo1-AM dye based fluorescence assay; format: functional, cell-based
T5 sequence (P30559 whole entry): T4 sequence (whole entry)

Vasopressin V1a receptor [10] = biological target: T1, Vasopressin V1a receptor; experiment: Antagonist activity at human V1A receptor expressed in HEK cells assessed as inhibition of AVP-induced intracellular calcium flux incubated for 45 mins by Indo1-AM dye based fluorescence assay relative to AVP; format: functional, cell-based
Target sequence in this assay (P37288 whole entry): as the sequence (P37288 whole entry) above

Oxytocin receptor [11] = biological target: T5, Oxytocin receptor; experiment: Displacement of DY647 from SNAP-tagged OTR receptor (unknown origin) expressed in HEK293 cells by TR-FRET assay; format: cell-based
[12] = biological target: T4, Oxytocin receptor (Homo sapiens); experiment: Antagonist activity at human OTR expressed in HEK cells assessed as inhibition of OT-induced intracellular calcium flux at 1 uM incubated for 45 mins by Indo1-AM dye based fluorescence assay relative to OT; format: functional, cell-based
Vasopressin V1a receptor [13] = biological target: T1, Vasopressin V1a receptor; experiment: Antagonist activity at V1A receptor (unknown origin) by cAMP accumulation assay; format: functional
Target sequence in this assay (P37288 whole entry): as the sequence (P37288 whole entry) above

Homo sapiens [14] = organism: Homo sapiens; experiment: Selectivity for human OTR receptor over human V2 receptor
Homo sapiens [15] = organism: Homo sapiens; experiment: Selectivity for human V1a receptor over human V2 receptor
Oxytocin receptor [16] = biological target: T5, Oxytocin receptor; experiment: Binding affinity to OTR receptor (unknown origin)
Oxytocin receptor [17] = biological target: T6, Oxytocin receptor (Rattus norvegicus, UniProt P70536); experiment: Antagonist activity at OXR receptor in rat uterus; format: functional
T6 sequence (P70536 whole entry): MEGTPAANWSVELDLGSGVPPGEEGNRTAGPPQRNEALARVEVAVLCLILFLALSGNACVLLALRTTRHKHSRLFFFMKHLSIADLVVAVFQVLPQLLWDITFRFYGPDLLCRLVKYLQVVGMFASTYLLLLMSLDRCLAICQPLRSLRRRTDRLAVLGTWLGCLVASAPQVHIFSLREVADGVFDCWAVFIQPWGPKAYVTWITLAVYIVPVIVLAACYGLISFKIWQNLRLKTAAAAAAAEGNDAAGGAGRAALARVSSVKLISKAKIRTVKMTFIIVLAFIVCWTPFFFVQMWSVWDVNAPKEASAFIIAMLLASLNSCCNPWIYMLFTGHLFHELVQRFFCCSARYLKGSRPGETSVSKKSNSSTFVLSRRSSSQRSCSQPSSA

Vasopressin V1a receptor [18] = biological target: T1, Vasopressin V1a receptor; experiment: Agonist activity at human V1A receptor expressed in CHO cells assessed as increase in myo-inositol 1-phosphate accumulation at 1 uM by IP-One assay relative to AVP; format: functional, cell-based
Target sequence in this assay (P37288 whole entry, looked up): as the sequence (P37288 whole entry) above

Vasopressin V1a receptor [19] = biological target: T1, Vasopressin V1a receptor; experiment: Binding affinity to V1A receptor (unknown origin)
Target sequence in this assay (P37288 whole entry): as the sequence (P37288 whole entry) above

Vasopressin V2 receptor [20] = biological target: T2, Vasopressin V2 receptor; experiment: Agonist activity at V2 receptor (unknown origin) by cAMP accumulation assay; format: functional
Vasopressin V2 receptor [21] = biological target: T2, Vasopressin V2 receptor; experiment: Binding affinity to V2 receptor (unknown origin)
Vasopressin V1a receptor [22] = biological target: T1, Vasopressin V1a receptor; experiment: Antagonist activity at human V1A receptor expressed in CHO cells assessed as inhibition of AVP-induced myo-inositol 1-phosphate accumulation at 1 uM by IP-One assay relative to AVP; format: functional, cell-based
Target sequence in this assay (P37288 whole entry, looked up): as the sequence (P37288 whole entry) above

Vasopressin V1b receptor [23] = biological target: T3, Vasopressin V1b receptor; experiment: Binding affinity to V1B receptor (unknown origin)
[24] = biological target: T4, Oxytocin receptor (Homo sapiens); experiment: Agonist activity at human OTR receptor expressed in CHO cells assessed as increase in myo-inositol 1-phosphate accumulation at 1 uM by IP-One assay relative to OT; format: functional, cell-based
Oxytocin receptor [25] = biological target: T5, Oxytocin receptor; experiment: Antagonist activity at OXR receptor (unknown origin); format: functional
Vasopressin V2 receptor [26] = biological target: T2, Vasopressin V2 receptor; experiment: Antagonist activity at V2 receptor (unknown origin); format: functional
Vasopressin V1a receptor [27] = biological target: T1, Vasopressin V1a receptor; experiment: Antagonist activity at V1A receptor (unknown origin); format: functional
Target sequence in this assay (P37288 whole entry): as the sequence (P37288 whole entry) above

Vasopressin V1a receptor [28] = biological target: T1, Vasopressin V1a receptor; experiment: Displacement of [3H]-AVP from human V1A receptor expressed in CHO cell membranes
Vasopressin V1b receptor [29] = biological target: T3, Vasopressin V1b receptor; experiment: Displacement of [3H]-AVP from human V1B receptor expressed in CHO cell membranes
Vasopressin V2 receptor [30] = biological target: T2, Vasopressin V2 receptor; experiment: Displacement of [3H]-AVP from human V2 receptor expressed in CHO cell membranes
Oxytocin receptor [31] = biological target: T5, Oxytocin receptor; experiment: Displacement of [3H]-oxytocin from OTR receptor in human USMC cell membranes

- Ki (Vasopressin V1a receptor [1]): 819 nM
- EC50 (Vasopressin V2 receptor [2]): 189 nM
- IC50 (Vasopressin V1b receptor [3]): > 100000 nM
- Ki (Vasopressin V2 receptor [4]): 91.9 nM
Structure (SMILES): CC(C)NC(=O)C[C@H]1CCCN(C(=O)c2ccc(N3CCCC3)cc2Cl)c2ccccc21

- Ki (Vasopressin V1a receptor [5]): 196 nM
- Emax [6]: 100%
- Emax (Vasopressin V1a receptor [7]): 5 to 10%
- Emax [8]: 84%
- EC50 (Oxytocin receptor [9]): 28 nM
- IC50 (Vasopressin V1a receptor [10]): 8 nM
- Ki (Oxytocin receptor [11]): 141 nM
- inhibition [12]: 5 to 10%
Structure (SMILES): Cc1cc(C(=O)N2Cc3cnn(C)c3Nc3ccccc32)ccc1CNC(=O)N1CCC[C@H]1C(=S)N1CCCN(C)CC1

- IC50 (Vasopressin V1a receptor [13]): 1660 nM
- Selectivity ratio (Homo sapiens [14]): 4
- Selectivity ratio (Homo sapiens [15]): 6.9
- Ki (Oxytocin receptor [16]): 125 nM
- IC50 (Oxytocin receptor [17]): 55 nM
- Emax (Vasopressin V1a receptor [18]): < 10%
- Ki (Vasopressin V1a receptor [19]): 465 nM
- EC50 (Vasopressin V2 receptor [20]): 0.7 nM
- Ki (Vasopressin V2 receptor [21]): 39.9 nM
- inhibition (Vasopressin V1a receptor [22]): 33%
- Ki (Vasopressin V1b receptor [23]): > 1000 nM
Structure (SMILES): Cc1ccn(-c2ccc(C(=O)N3Cc4cccn4Cc4ccccc43)c(Cl)c2)n1

- Emax [24]: < 10%
- IC50 (Oxytocin receptor [25]): 109 nM
- IC50 (Vasopressin V2 receptor [26]): 0.57 nM
- IC50 (Vasopressin V1a receptor [27]): 2.74 nM
- Emax (Vasopressin V1a receptor [18]): < 10%
Structure (SMILES): O=C(Nc1ccc(C(=O)N2CCCCc3ccccc32)cc1)c1ccccc1-c1ccccc1

- Ki (Vasopressin V1a receptor [28]): 0.3 nM
- Ki (Vasopressin V1b receptor [29]): 25500 nM
- Ki (Vasopressin V2 receptor [30]): 381 nM
- Ki (Oxytocin receptor [31]): 71 nM
Structure (SMILES): Cc1occc1C(=O)Nc1ccc(C(=O)N2CCC(F)(F)/C(=C\C(=O)N3CCC(N4CCCCC4)CC3)c3ccccc32)cc1
